What all share (format): biochemical
For test [1], the target named is T1, catalytic domain of human collagenase-1 (MMP-1) (Homo sapiens, UniProt P03956).
T1 construct: enzyme activity of the catalytic domain of human collagenase-1 (MMP-1); purchased Biocol, Potsdam MMP1
T1 sequence (P03956 100-269 limits assumed): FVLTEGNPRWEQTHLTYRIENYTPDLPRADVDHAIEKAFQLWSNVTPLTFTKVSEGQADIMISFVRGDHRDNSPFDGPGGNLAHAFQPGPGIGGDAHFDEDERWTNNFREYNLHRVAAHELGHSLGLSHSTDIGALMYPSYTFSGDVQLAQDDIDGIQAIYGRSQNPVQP
In words: Enzyme activity of the catalytic domain of human collagenase-1 (MMP-1), fluorogenic substrate. Conditions: APMA-activated proenzyme, fluorescence 328/393 nm. Here is the method:
a) Determining the enzyme activity of the catalytic domain of human collagenase-1 (MMP-1).
Activation of the proenzyme:
2 parts by volume of proenzyme are incubated, at 37° C. for 1 hour, with 1 part by volume of APMA solution. The APMA solution is prepared from a 10 mmol/l solution of p-aminophenylmercuric acetate in 0.1 mmol/l NaOH by diluting with 3 parts by volume of tris/HCl buffer, pH 7.5 (see below). The pH is adjusted to between 7.0 and 7.5 by adding 1 mmol/l HCl. After the enzyme has been activated, it is diluted with the tris/HCl buffer to a concentration of 2.5 μg/ml.
In order to measure the enzyme activity, 10 μl of enzyme solution are incubated for 15 minutes with 10 μl of a 3% (v/v) buffered solution of dimethyl sulfoxide (reaction 1). In order to measure the enzyme inhibitor activity, 10 μl of enzyme solution are incubated with 10 μl of a 3% (v/v) buffered solution of dimethyl sulfoxide which contains the enzyme inhibitor (reaction 2).
Both in the case of reaction 1 and in the case of reaction 2, the enzyme reaction is monitored by fluorescence spectroscopy (328 nm (extinction)/393 nm (emission)) after adding 10 μl of a 3% (v/v) aqueous solution of dimethyl sulfoxide which contains 0.3 mmol of the substrate/l.
(§1) The enzyme activity is presented as increase in extinction/minute.
The inhibitory effect is calculated as percentage inhibition using the following formula: % inhibition=100−[(increase in extinction/minute in reaction 2)/(increase in extinction/minute in reaction 1)×100].
The IC50, i.e. the inhibitor concentration which is required for 50% inhibition of the enzyme activity, is determined graphically by plotting the percentage inhibitions at different inhibitor concentrations. The buffer solution contains 0.05% Brij (Sigma, Deisenhofen, Germany) and also 0.1 mol of tris/HCl/l, 0.1 mol of NaCl/l, 0.01 mol of CaCl2/l (pH=7.5).
The enzyme solution contains 2.5 μg of the enzyme domain/ml.
The substrate solution contains 0.3 mmol of the fluorogenic substrate (7-methoxycoumarin-4-yl)acetyl-Pro-Leu-Gly-Leu-3-(2′,4′-dinitrophenyl)-L-2,3-diaminopropionyl-Ala-Arg-NH2/l (Bachem, Heidelberg, Germany).

The target of test [2] is T2, catalytic domain of human stromelysin (MMP-3) (Homo sapiens, UniProt P08254).
T2 construct: of the catalytic domain of human stromelysin (MMP-3) and neutrophilic collagenase (MMP-8); made in house
In words: Enzyme activity of the catalytic domain of human stromelysin (MMP-3), fluorogenic substrate. To be noted: catalytic domain prepared as described by Ye et al., fluorescence 328/393 nm. The method, then:
(§2) b) Preparation, and determination of the enzyme activity, of the catalytic domain of human stromelysin (MMP-3) and neutrophilic collagenase (MMP-8).
(§3) The two enzymes, i.e. stromelysin (MMP-3) and neutrophilic collagenase (MMP-8), were prepared as described by Ye et al. (Biochemistry; 31 (1992) pages 11231–11235). In order to measure the enzyme activity or the inhibitory effect on the enzyme, 10 μl of enzyme solution were incubated, for 15 minutes, with 10 μl of a 3% (v/v) buffered solution of dimethyl sulfoxide which contained the enzyme inhibitor, where appropriate. After 10 μl of a 3% (v/v) aqueous solution of dimethyl sulfoxide which contained 1 mmol of substrate/l had been added, the enzyme reaction was monitored by fluorescence spectroscopy (328 nm (ex)/393 nm(em)).
as §1
(§4) The buffer solution contained 0.05% Brij (Sigma, Deisenhofen, Germany) as well as 0.1 mol of tris/HCl/l, 0.1 mol of NaCl/l, 0.01 mol of CaCl2/l and 0.1 mol of piperazine-N,N′-bis[2-ethanesulfonic acid]/l (pH=7.5). The MMP-3 enzyme solution contained 2.3 μg, and the MMP-8 enzyme solution contained 0.6 μg, of one of the enzyme domains/ml prepared as described by Ye et al. The substrate solution contained 1 mmol of the fluorogenic substrate (7-methoxycoumarin-4-yl)acetyl-Pro-Leu-Gly-Leu-3-(2′,4′-dinitrophenyl)-L-2,3-diaminopropionyl-Ala-Arg-NH2/l (Bachem, Heidelberg, Germany).

The target of test [3] is T3, catalytic domain of human neutrophilic collagenase (MMP-8) (Homo sapiens, UniProt P22894).
T3 construct: of the catalytic domain of human stromelysin (MMP-3) and neutrophilic collagenase (MMP-8); made in house
The test is described as follows: Enzyme activity of the catalytic domain of neutrophilic collagenase (MMP-8), fluorogenic substrate. To be noted: catalytic domain prepared as described by Ye et al., fluorescence 328/393 nm. The method, then:
as §2, §3, §1, §4

Consider 13 molecules from patent publication US7205315B2, “Bicyclic imino acid derivatives as inhibitors of matrix metalloproteinases” (Sanofi-Aventis Deutschland GmbH, priority 2003, dated 2007).

Where a name gives a salt, the structure may show the parent alone.

T3 sequence (P22894 100-262 limits assumed): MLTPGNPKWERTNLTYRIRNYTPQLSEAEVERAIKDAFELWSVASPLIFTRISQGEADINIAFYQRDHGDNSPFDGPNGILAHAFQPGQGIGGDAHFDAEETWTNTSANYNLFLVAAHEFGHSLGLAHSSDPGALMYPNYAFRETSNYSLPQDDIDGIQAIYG
T2 sequence (P08254 100-272 limits assumed): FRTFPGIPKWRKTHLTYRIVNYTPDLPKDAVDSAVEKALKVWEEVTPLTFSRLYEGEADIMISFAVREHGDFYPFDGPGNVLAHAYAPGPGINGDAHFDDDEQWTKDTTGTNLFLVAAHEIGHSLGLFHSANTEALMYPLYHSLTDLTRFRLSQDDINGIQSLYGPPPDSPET

Take `O=C(NO)[C@H]1[C@H]2CCCC[C@H]2CCN1S(=O)(=O)c1ccc(-c2ccc(Cl)cc2)cc1` (single isomer, unassigned) [Example 14, 2-(4′-chlorobiphenyl-4-sulfonyl)decahydroisoquinoline-1-(N-hydroxy)-carboxamide]: the IC50 (usually the concentration needed to halve the response being measured) in test [1] was determined as 400 nM; in test [2], 25 nM; in test [3], 2.2 nM.
On to `O=C(NO)[C@@H]1[C@@H]2CCCC[C@@H]2CCN1S(=O)(=O)c1ccc(-c2ccc(Cl)cc2)cc1` (single isomer, unassigned) [Example 15, 2-(4′-chlorobiphenyl-4-sulfonyl)decahydroisoquinoline-1-(N-hydroxy)-carboxamide], for which the IC50 in test [1] amounted to 6000 nM; in test [2], 10000 nM; in test [3], 2000 nM.
The like results for `O=C(NO)C1C2CCCCC2CCN1S(=O)(=O)c1ccc(-c2ccc(Cl)cc2)cc1` (stereo not drawn) [Example 3, 2-(4′-chlorobiphenyl-4-sulfonyl)decahydroisoquinoline-1-(N-hydroxy)-carboxamide] were, in that order, 400 nM, 40 nM and 3 nM.
As for `O=C(NO)C1C2CCCCC2CCN1S(=O)(=O)c1ccc(Oc2ccccc2)nc1` (stereo not drawn) [Example 5, 2-(6-phenoxypyridine-3-sulfonyl)decahydroisoquinoline-1-(N-hydroxy)-carboxamide trifluoroacetate], the IC50 was found to be 70 nM in test [1], 28 nM in test [2] and 2.5 nM in test [3].
In the case of `O=C(NO)C1C2CCCCC2CCN1S(=O)(=O)CCc1ccc(-c2ccc(Cl)cc2)cc1` (stereo not drawn) [Example 7, 2-[2-(4′-chlorobiphenyl-4-yl)ethanesulfonyl]decahydroisoquinoline-1-(N-hydroxy)carboxamide], the IC50 was determined as 600 nM in test [1], 65 nM in test [2] and 13 nM in test [3].
The like results for `O=C(NO)C1C2CCCCC2CCN1S(=O)(=O)c1ccc(Oc2ccncc2)cc1` (stereo not drawn) [Example 9, 2-[4-(pyridin-4-yloxy)benzenesulfonyl]decahydroisoquinoline-1-(N-hydroxy)carboxamide trifluoroacetate] were, in that order, 1000 nM, 160 nM and 22 nM.
On to `COc1ccc(Oc2ccc(S(=O)(=O)N3CCC4CCCCC4C3C(=O)NO)cc2)cc1` (stereo not drawn) [Example 11, 2-[4-(4-methoxyphenoxy)benzenesulfonyl]decahydroisoquinoline-1-(N-hydroxy)carboxamide], for which the results for the IC50 in test [1], in test [2] and in test [3] were 220 nM, 25 nM and 2.5 nM, respectively.
With `O=C(NO)C1C2CCCCC2CCN1S(=O)(=O)c1ccc(Oc2ccc(OCC(F)(F)F)cc2)cc1` (stereo not drawn) [Example 13, 2-{4-[4-(2,2,2-trifluoroethoxy)phenoxy]benzenesulfonyl}decahydroisoquinoline-1-(N-hydroxy)carboxamide], the figures for the IC50 in test [1], in test [2] and in test [3] were 180 nM, 30 nM and 4 nM, respectively.
Taken in the same sequence, the figures for `O=C(NO)C1C2CCCCC2CCN1S(=O)(=O)c1ccc(-c2ccc(OC(F)(F)F)cc2)cc1` (stereo not drawn) [Example 19, 2-(4′-trifluoromethoxybiphenyl-4-sulfonyl)decahydroisoquinoline-1-(N-hydroxy)carboxamide] were 2100 nM, 59 nM and 10 nM.
For the molecule `O=C(NO)C1C2CCCCC2CCN1S(=O)(=O)c1ccc(Oc2ccc(F)cc2)cc1` (stereo not drawn) [Example 20, 2-[4-(4-fluorophenoxy)benzenesulfonyl]decahydroisoquinoline-1-(N-hydroxy)carboxamide], the IC50 in test [1] turned out to be 41 nM; in test [2] it was 26 nM; in test [3], 3 nM.
Taken in the same sequence, the figures for `O=C(NO)[C@H]1[C@H]2CCCC[C@H]2CCN1S(=O)(=O)c1ccc(Oc2ccc(F)cc2)cc1` [Example 21, 2-[4-(4-fluorophenoxy)benzenesulfonyl]decahydroisoquinoline-1-(N-hydroxy)carboxamide] were 21 nM, 23 nM and 2.3 nM.
The like results for `O=C(NO)C1C2CCCCC2CCN1S(=O)(=O)c1ccc(Oc2ccc(OC(F)(F)F)cc2)cc1` (stereo not drawn) [Example 23, 2-[4-(4-trifluoromethoxyphenoxy)benzenesulfonyl]decahydroisoquinoline-1-(N-hydroxy)carboxamide] were, in that order, 290 nM, 50 nM and 9 nM.
The like results for `N#Cc1ccc(Oc2ccc(S(=O)(=O)N3CCC4CCCCC4C3C(=O)NO)cc2)cc1` (stereo not drawn) [Example 26, 2-[4-(4-cyanophenoxy)benzenesulfonyl]decahydroisoquinoline-1-(N-hydroxy)carboxamide] were, in that order, 450 nM, 41 nM and 16 nM.
